# Reference: US5886190A, “Rapid synthesis and use of 18F-fluoromisonidazole and analogs” (priority 1997, dated 1999)
# Columns and labels:
# mammary tumor = test: Autoradiographic studies in tumor-bearing rats; details: 1 hour postinjection
# Method: (§1) The synthesis scheme for [^18 F]FETNIM is depicted in FIG. 6. Biodistribution studies of [^18 F]FETNIM were performed at 1, 2 and 4 hours in mammary tumor-bearing rats (10 μCi, iv, N=3/time interval). Autoradiograms were performed at 1 hour postinjection of [^18 F]FETNIM, and a comparison has been made with [^18 F]fluoromisonidazole (FMISO). Intratumoral oxygen tension measurements were performed using the Eppendorf computerized histographic system. Twenty to twenty-five pO2 measurements along each of 2 to 3 linear tracks were performed at 0.4 mm intervals on each tumor. PET imaging studies of [^18 F]FETNIM were performed in rabbits bearing V2 tumors (N=3, 4 mCI, iv) which were located on the right leg.
# Female Fischer 344 mammary tumor-bearing rats (n=3) after receiving [^18 F]FETNIM (2 mCi, iv) were sacrificed at 1 h. […] The rats were sacrificed at 1 hour postinjection. The rat body was fixed in a carboxymethyl cellulose (4%) block. The frozen body in a block was mounted to a cryostat (LKB 2250 cryo-microtome, Ijamsville, Md.) and 40 μm coronal sections were made. The section was freeze dried, then mounted on a x-ray film (X-Omat AR, Kodak, Rochester, N.Y.) for 24 hours.
# [1] = type: in vivo, 70 Kg male (human)
# From the text: The following Table summarizes the results of dosimetry calculation for radiation exposure to several […] tissues.
# Dosimetry: Normal Tissue Dosimetry for ^18 F-FMISO
# [2] = system: hypoxic elements within a tumor volume; test: Patient studies of ^18 F-FMISO uptake in tumors; details: in vivo
# From the text: In patient studies, the hypoxic elements within a tumor volume was defined as regions with a threshold regional tumor to plasma (^18 F-FMISO) ratio of ≥1.4 by 2 or more hours after injection.
# rats = details: 2 mCi/Kg single dose; n=3; follow-up 5 days
# Method: In addition, animal acute toxicity studies have been performed, rats (n=3) were administered 2 mCi/Kg as a single dose.
# [3] = system: nasalpharyngeal cancer (NPC); test: PET imaging of patients with nasalpharyngeal cancer; type: in vivo, human (patients); details: 10 mCi
# Method: PET imaging studies were performed on two patients with nasalpharyngeal cancer (NPC). […] After each patient had received 10 mCi of [^18 F]FMISO, eight consecutive 15-min scans were taken. […] Each patient was also administered [^18 F]FDG to ascertain the tumor region.
# hypoxic cells [4] = test: Selectivity to hypoxic cells (PET imaging, autoradiograms, biodistribution); details: in vivo
# Method: as §1
# PET imaging was performed with a positron camera (Positron Corporation, Houston, Tex.). The tomograph has a field-of-view of 42 cm on transverse and 12 cm on coronal planes. The axial resolution on the reconstructed plane is 1.2 cm. […]
# Female Fischer 344 rats (250-275 g) (Harlan, Inc., Indianapolis, Ind.) were inoculated with mammary tumor cells in the lumbar area using a 13762 tumor cell line (s.c. 10^5 cells/rat). […] The tissues were excised, weighed and counted for radioactivity. The percent of injected dose per gram of tissue weight was determined.
# [5] = system: hypoxic elements within a tumor volume; details: 2 or more hours after injection; cited from earlier work
# [6] = system: intracellular nitroreductases; details: cited from earlier work
# hypoxic cells [7] = details: radiobiologically significant oxygen levels; cited from earlier work
# cancer of the pharynx = details: cited from earlier work
# patients = details: cited from earlier work
# [8] = in mice; cited from earlier work
structure (smiles),measurement,setting,value
"O=[N+]([O-])c1nccn1CC(O)C[18F] (centres unmarked) [[^18 F]FMISO, 3-[^18 F]Fluoro-1-(2'-nitro-1'-imidazoyl)-2-propanol]",Uptake in intestines and colon,mammary tumor,high uptake
same,Differentiation of hypoxic versus necrotic regions in the tumor,mammary tumor; autoradiogram,could differentiate hypoxic versus necrotic regions in the tumor
same,Bladder wall dose relative to muscle dose,"[1]; 70 Kg male, 0.1 mCi/Kg",about five times as much
same,Liver and kidney dose relative to muscle dose,"[1]; 70 Kg male, 0.1 mCi/Kg",nearly twice the muscle dose
same,Total body musculature dose in a routine study,"[1]; 70 Kg male, 0.1 mCi/Kg",120 mrem
same,"Normal tissue dose, bladder","[1]; bladder, 7 mCi/70 Kg, n = 2",570 mrad
same,"Normal tissue dosimetry, bladder","[1]; bladder, ± SD",81.5 ± 47 mrad/mCi
same,"Normal tissue dose, kidney","[1]; kidney, 7 mCi/70 Kg, n = 3",180 mrad
same,"Normal tissue dosimetry, kidney","[1]; kidney, ± SD",25.8 ± 5.5 mrad/mCi
same,"Normal tissue dose, liver","[1]; liver, 7 mCi/70 Kg, n = 3",190 mrad
same,"Normal tissue dosimetry, liver","[1]; liver, ± SD",26.8 ± 9.7 mrad/mCi
same,"Normal tissue dose, muscle","[1]; muscle, 7 mCi/70 Kg, n = 6",120 mrad
same,"Normal tissue dosimetry, muscle","[1]; muscle, ± SD",16.8 ± 7.9 mrad/mCi
same,Feasibility of detecting hypoxia in human head and neck tumors,[2],feasibility of using ^18 F-FMISO to detect hypoxia in human head and neck tumors
same,Acute toxicity,rats,All rats tolerated this dose without toxicity
same,Detection of hypoxic tumors by PET,[3],able to detect primary or metastatic hypoxic tumors
same,"PET tumor uptake, first patient",[3]; first patient,showed tumor uptake in the lymph node region
same,"PET finding, second patient",[3]; second patient,the recurrent primary tumor is hypoxic
same,Selectivity to hypoxic cells,hypoxic cells [4],selective to hypoxic cells
same,Threshold regional tumor to plasma ratio defining hypoxic elements,[5],≥ 1.4
same,Metabolism,[6],metabolized by intracellular nitroreductases
same,Selective binding to hypoxic cells,hypoxic cells [7],bind selectively to hypoxic cells in vitro and in vivo
COCC(O)Cn1ccnc1[N+](=O)[O-] (centres unmarked) [misonidazole],Radiosensitizer potency,"cancer of the pharynx; human, in vivo",potent radiosensitizers
same,Clinical benefit on addition,cancer of the pharynx; patients with high hemoglobin levels and cancer of the pharynx,great benefit
same,Dose-limiting toxicity,patients; clinical trials,peripheral neuropathy that progressed to central nervous system toxicity if drug administration was not stopped
same,Most common side effect,"patients; human, in vivo",peripheral sensory neuropathy of the hands and feet
same,Toxicity after large single doses,patients; large single doses,convulsions
same,Toxicity following small multiple doses,patients; small multiple doses,encephalopathies
same,Dose which affects the neurotransmitter system,[8],0.76 mg/g
